# Patent US8802664B2 (Bioproject, priority 2010, dated 2014)
# Biological target: T1, human H4 receptor (Homo sapiens, UniProt Q9H3N8)
# T1 construct: expressed in transfected cells
# Test: [3H]Histamine binding on membranes of CHO cells stably expressing human H4 receptor
# Conditions: not given
# Summary of the method: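 Filter-bound counts (liquid scintillation) gave H4 binding. Incubation used 20 μg membrane protein/well in Tris/HCl 50 mM plus EDTA 0.5 mM at pH 7.4, and 10 μM JNJ 7777120 set nonspecific binding. Filtration on GF/B pretreated with polyethyleneimine stopped the reaction.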
row,Compound,Ki or IC50 activity class [nM]
1,"CN1CCC(OC(c2cccc(SCCN)c2)c2nc3cc(F)ccc3[nH]2)CC1 (centres unmarked) [Example 428, 2-{3-[(5-fluoro-1H-benzimidazol-2-yl)(1-methylpiperidin-4-yloxy)methyl]phenylsulfanyl}ethylamine]",< 300
2,"CN1CCC(OC(c2cccc(N3CCC(F)C3)c2)c2nc3ccccc3s2)CC1 (centres unmarked) [Example 430, 2-[[3-(3-fluoropyrrolidin-1-yl)phenyl](1-methylpiperidin-4-yloxy)methyl]benzothiazole]",< 30
3,"CN1CCC(OC(c2cccc(OCC=CCN)c2)c2nc3ccccc3s2)CC1 (centres unmarked) [Example 431, 4-{3-[benzothiazol-2-yl(1-methylpiperidin-4-yloxy)methyl]phenoxy}but-2-enylamine]",< 30
4,"CN1CCC(OC(c2cccc(SCC(=O)NCCN)c2)c2nc3ccccc3[nH]2)CC1 (centres unmarked) [Example 436, N-(2-aminoethyl)-2-{3-[(1H-benzimidazol-2-yl)(1-methylpiperidin-4-yloxy)methyl]phenylsulfanyl}acetamide]",< 30
5,"CN1CCC(OC(c2cccc(C#CCCCN)c2)c2nc3cc(F)ccc3[nH]2)CC1 (centres unmarked) [Example 438, 5-{3-[(5-fluoro-1H-benzimidazol-2-yl)(1-methylpiperidin-4-yloxy)methyl]phenyl}pent-4-ynylamine]",< 30
6,"CN1CCC(OC(c2cccc(C#CCCCCN)c2)c2nc3cc(F)ccc3[nH]2)CC1 (centres unmarked) [Example 439, 6-{3-[(5-fluoro-1H-benzimidazol-2-yl)(1-methylpiperidin-4-yloxy)methyl]phenyl}hex-5-ynylamine]",< 30
7,"CN1CCC(OC(c2cccc(SCCCCN)c2)c2nc3cc(F)ccc3[nH]2)CC1 (centres unmarked) [Example 440, 4-{3-[(5-fluoro-1H-benzimidazol-2-yl)(1-methylpiperidin-4-yloxy)methyl]phenylsulfanyl}butylamine]",< 30
8,"CN1CCC(OC(c2cccc(SCCCNC(=N)N)c2)c2nc3ccccc3[nH]2)CC1 (centres unmarked) [Example 441, N-(3-{3-[(1H-benzimidazol-2-yl)(1-methylpiperidin-4-yloxy)methyl]phenylsulfanyl}propyl)guanidine]",< 30
9,CN1CCC(OC(c2nc3ccccc3[nH]2)c2cc(C#CCCCN)ccc2F)CC1 (centres unmarked) [Example 442],< 30
10,"CN1CCC(OC(c2cccc(N3CCC(=O)C3)c2)c2nc3ccccc3s2)CC1 (centres unmarked) [Example 443, 1-{3-[benzothiazol-2-yl(1-methylpiperidin-4-yloxy)methyl]phenyl}pyrrolidin-3-one]",< 30
11,"CN1CCC(OC(c2cccc(SCCCCNC(=N)N)c2)c2nc3ccccc3[nH]2)CC1 (centres unmarked) [Example 444, N-(4-{3-[(1H-benzimidazol-2-yl)(1-methylpiperidin-4-yloxy)methyl]phenylsulfanyl}butyl)guanidine]",< 300
12,"CN1CCC(OC(c2cccc(SCCCCCO)c2)c2nc3ccccc3[nH]2)CC1 (centres unmarked) [Example 445, 5-{3-[(1H-benzimidazol-2-yl)(1-methylpiperidin-4-yloxy)methyl]phenylsulfanyl}pentan-1-ol]",< 300
13,"CN1CCC(OC(c2ccc([N+](=O)[O-])cc2)c2nc3ccccc3[nH]2)CC1 (centres unmarked) [Example 447, 2-[(1-methylpiperidin-4-yloxy)(4-nitrophenyl)methyl]-1H-benzimidazole]",< 1000
14,"CN1CCC(OC(c2cccc(Oc3cccnc3)c2)c2nc3ccccc3s2)CC1 (centres unmarked) [Example 448, 2-{(1-methylpiperidin-4-yloxy)[3-(pyridin-3-yloxy)phenyl]methyl}benzothiazole]",< 300
15,"CN1CCC(COC(c2cccc(Br)c2)c2nc3cc(F)ccc3[nH]2)C1 (centres unmarked) [Example 449, 2-[(3-bromophenyl)(1-methylpyrrolidin-3-ylmethoxy)methyl]-5-fluoro-1H-benzimidazole]",< 30
16,CN1CCC(OC(c2cccc(N3CC(N(C)C)C3)c2)c2nc3ccccc3s2)CC1 (centres unmarked) [Example 450],< 1000
17,CN1CCC(OC(c2cccc(SCCCCCCN)c2)c2nc3ccccc3[nH]2)CC1 (centres unmarked) [Example 451],< 300

# Continued, values first:
row,Ki or IC50 activity class [nM],Compound
1,< 300,CN1CCC(OC(c2cccc(N3CCC(O)C3)c2)c2nc3ccccc3[nH]2)CC1 (centres unmarked) [Example 452]
2,< 30,CN1CCC(OC(c2cccc(OC3CCC(N)C3)c2)c2nc3ccccc3s2)CC1 (centres unmarked) [Example 453]
3,< 30,"CN1CCC(OC(c2ccc(N)cc2)c2nc3ccccc3[nH]2)CC1 (centres unmarked) [Example 455, 4-[(1H-benzimidazol-2-yl)(1-methylpiperidin-4-yloxy)methyl]aniline]"
4,< 1000,"Nc1ccc(C(OC2CCNCC2)c2nc3ccccc3[nH]2)cc1 (centres unmarked) [Example 456, 4-[(1H-benzimidazol-2-yl)(piperidin-4-yloxy)methyl]aniline]"
5,< 30,CN1CCC(OC(c2cccc(SCC3CNC(=O)O3)c2)c2nc3ccccc3[nH]2)CC1 (centres unmarked) [Example 457]
6,< 300,CN1CCC(OC(c2cccc(SCCCCCCNC(=N)N)c2)c2nc3ccccc3[nH]2)CC1 (centres unmarked) [Example 458]
7,< 30,CN1CCC(OC(c2cccc(SCC(=O)NCCN)c2)c2nc3cc(F)ccc3[nH]2)CC1 (centres unmarked) [Example 459]
8,< 1000,"CN1CCC(OC(c2cccc(N3CCC(O)(C(F)(F)F)C3)c2)c2nc3ccccc3s2)CC1 (centres unmarked) [Example 460, 1-{3-[benzothiazol-2-yl(1-methylpiperidin-4-yloxy)methyl]phenyl}-3-trifluoromethylpyrrolidin-3-ol]"
9,< 300,CN1CCC(OC(c2cccc(OC3CCNC3)c2)c2nc3ccccc3[nH]2)CC1 (centres unmarked) [Example 461]
10,< 300,CN1CCC(COC(c2cccc(C#CCCCN)c2)c2nc3cc(F)ccc3[nH]2)C1 (centres unmarked) [Example 462]
11,< 1000,CN1CCC(OC(c2cccc(SCC3=NCCN3)c2)c2nc3cc(F)ccc3[nH]2)CC1 (centres unmarked) [Example 463]
12,< 30,CN1CCC(COC(c2cccc(Br)c2)c2nc3ccccc3s2)C1 (centres unmarked) [Example 465]
13,< 30,CN1CCC(OC(c2cccc(OC3CC4CNCC4C3)c2)c2nc3ccccc3s2)CC1 (centres unmarked) [Example 466]
14,< 300,CN1CCC(OC(c2cccc(N3CC4CC(N)CC4C3)c2)c2nc3ccccc3s2)CC1 (centres unmarked) [Example 471]
15,< 300,"CN1CCC(OC(c2cccc(I)c2)c2nc3ccccc3n2C)CC1 (centres unmarked) [Example 472, 2-[(3-iodophenyl)(1-methylpiperidin-4-yloxy)methyl]-1-methyl-1H-benzimidazole]"
16,< 30,CN1CCC(OC(c2cccc(SCC=CCN)c2)c2nc3ccccc3[nH]2)CC1 (centres unmarked) [Example 473]
17,< 300,CN1CCC(OC(c2cccc(OCCCF)c2)c2nc3ccccc3[nH]2)CC1 (centres unmarked) [Example 475]

# Same assay, conditions: human H4 receptor; evaluated in the GTPγ[35S] assay or in the [3H]histamine binding assay (not stated which per compound); Ki or IC50 class
row,Ki or IC50 activity class [nM],Compound
1,< 300,"CN1CCC(OC(c2cccc(N3CCC(N)C3)c2)c2nc3ccccc3s2)CC1 (centres unmarked) [Example 429, 1-{3-[benzothiazol-2-yl(1-methylpiperidin-4-yloxy)methyl]phenyl}pyrrolidin-3-ylamine]"
2,< 30,CN1CCC(OC(c2cccc(N3CCC(F)C3)c2)c2nc3ccccc3s2)CC1 (centres unmarked) [Example 454]
3,< 30,CN1CCC(OC(c2cccc(SCC=CCN)c2)c2nc3ccccc3[nH]2)CC1 (centres unmarked) [Example 474]

# Same assay, conditions: read-out: Activity (Ki or IC50)
row,Compound,Ki [nM]
1,CN1CCC(OC(c2cccc(SCCNC(=N)NC(=O)C(C)(C)C)c2)c2nc3ccccc3[nH]2)CC1 (centres unmarked) [Example 446],< 300
